Patent publication US6753323B2, “Topical administration of amifostine and related compounds” (MedImmune Oncology, Inc., priority 1998, dated 2004)

Legend:
Experiment in all cases: Microbial growth inhibition, room temperature storage (20°-25° C.)
Type in all cases: cell-based
Candida albicans = conditions: room temperature 20°-25° C.; for % Change: vs theoretical 0 hr count
Experimental: (§1) Amifostine was studied for its ability to inhibit microbial growth. Clear 10 cc vials, stoppers and seals were sterilized for use in the study. Two separate procedures were performed: a refrigerated storage study (2° to 8° C.) and a room temperature storage study (20° to 25° C.). For each test portion, positive controls were prepared for each organism by placing 9.5 mL sterile 0.9% sodium chloride into separate sterile vials and inoculating each with 10^3 to 10^4 of one of the test organisms. In addition, amifostine test specimens were prepared for each test portion by reconstituting six Ethyol® vials with 0.9% sodium chloride, the contents of each of these vials were then transferred to clear sterile vials to allow for easier visual examination. One vial was designated as a negative control, and each of the remaining five vials was inoculated with 10^3 to 10^4 of one of the test organisms. All vials were protected from light throughout the test to simulate the amber Ethyol® vial.
(§2) Positive controls, product test specimens, and a negative control were prepared. At this time, population counts were performed on each positive control. Population counts were also performed on positive controls and product test specimens at 24 and 48 hours. These samples were diluted with sterile water and plated in duplicate with a target of 30 to 300 colonies per plate. Candida albicans, Escherichia coli, Pseudomonas aeruginosa, and Staphylococcus aureus were overpoured with TSA agar and incubated at 30-35° C. for 48 hours. Aspergillus niger was overpoured with Sabouraud agar and incubated at 20-25° C. for 48 hours.

Escherichia coli = conditions: E. coli, room temperature 20°-25° C.; for % Change: vs theoretical 0 hr count
Experimental: as §1, §2

Staphylococcus aureus = conditions: S. aureus, room temperature 20°-25° C.; for % Change: vs theoretical 0 hr count
Experimental: as §1, §2

Pseudomonas aeruginosa = conditions: P. aeruginosa, room temperature 20°-25° C.; for % Change: vs theoretical 0 hr count
Experimental: as §1, §2

Aspergillus niger = conditions: A. niger, room temperature 20°-25° C.; for % Change: vs theoretical 0 hr count
Experimental: as §1, §2

## NCCCNCCSP(=O)(O)O [amifostine, S-2-(3-aminopropylamino)ethyl dihydrogen phosphorothioate]
Candida albicans; 24 hr
  CFU/mL in Amifostine: 1.43 × 10^4 CFU/mL
  % Change: −13.8%
Candida albicans; 48 hr
  CFU/mL in Amifostine: 1.00 × 10^4 CFU/mL
  % Change: −39.8%
Escherichia coli; 24 hr
  CFU/mL in Amifostine: 2.28 × 10^3 CFU/mL
  % Change: −91.8%
Escherichia coli; 48 hr
  CFU/mL in Amifostine: 8.55 × 10^2 CFU/mL
  % Change: −96.9%
Staphylococcus aureus; 24 hr
  CFU/mL in Amifostine: 9.60 × 10^4 CFU/mL
  % Change: −4.0%
Staphylococcus aureus; 48 hr
  CFU/mL in Amifostine: 3.32 × 10^2 CFU/mL
  % Change: −99.7%
Pseudomonas aeruginosa; 24 hr
  CFU/mL in Amifostine: 5.22 × 10^2 CFU/mL
  % Change: −80.0%
Pseudomonas aeruginosa; 48 hr
  CFU/mL in Amifostine: 0 CFU/mL
  % Change: −100%
Aspergillus niger; 24 hr
  CFU/mL in Amifostine: 1.56 × 10^7 CFU/mL
  % Change: +58.3%
Aspergillus niger; 48 hr
  CFU/mL in Amifostine: 3.52 × 10^6 CFU/mL
  % Change: −61.3%
